Source: patent publication US20210113563A1, “4-(4-CYANO-2-THIOARYL)DIHYDROPYRIMIDINONES FOR TREATING CHRONIC WOUNDS” (pH Pharma Co., Ltd., priority 2015, published 2021)

How the values were obtained:
[1] = Exposure in plasma and skin of diabetic mouse (db/db); format: in vivo; details: for Total concentration in skin: day 8; for Total concentration in plasma, geo mean: day 8, 20 h after last treatment
Protocol: Upon scarification on day 8, 20 h after the last treatment, arterial blood samples were collected into EDTA citrate serum sample tubes for LC/MSMS based quantification of compound exposure.

[2] = tested on: wounds of diabetic mouse (db/db); assay: Visual wound size reduction in diabetic mouse (db/db); format: in vivo
Protocol: The wounding was conducted in the following manner: • 1) db/db mice were anaesthetized with Isoflurane/O2/N2O (2.5-3.5%/800 ml/min/500 ml/min), and placed on a heating pad upon induction after application of eye ointment • 2) mice were shaven and Pilca was applied for 3-5 minutes to remove the fur and fine hairs 3) two dorsal full thickness wounds were placed with a 8 mm punch biopsie tool after wiping the skin with ethanol and wound size was measured immediately • 4) mice were treated with Temgesic and kept on warming pad until recovery from anaesthesia
Wound Size Measurement: Wound size was measured with a sliding caliper. […] Assuming an elliptic shape, wound area was calculated with:
Wound size reduction on day i was calculated from the initial area on day 0 post wounding: […]

[3] = tested on: collagen type I and collagen type III in ulcer tissue; assay: Collagen type I and III in chronic skin lesions of adriamycin-treated rats, Sirius red staining; format: in vivo, rat; details: for Collagen type I / Collagen type III: adriamycin-treated rats, 10 mg/kg BW o.d.
Source text: (§1) On day 2, 4, 7, 9, 11, 14, 16, 18, 21, 23, 25 and 28 • inhalation anesthesia: isoflurane, O2, N2O mixture • size measurement of the depot and photos Day 28 section • inhalation anesthesia: isoflurane, O2, N2O mixture under anesthesia and then dislocation of the cervical spine • size measurement of the depot and the incision wound and photos • Former depots were harvested by punch biopsies • Wound 1/custodian of any animal->in liquid N2 for peroxidase and elastase determination • Wound 2/custodian of any animal->in liquid N2 for Hydroxyproline determination • Wound 3/custodian of any animal->in formalin fixed for histological studies • Samples were stored for further procedures at −80° C.
After sufficient time in formalin (24-72 h), the samples were trimmed to an appropriate size and transferred to histology-cassettes. The histo-cassettes are watered 2 h under running tap water at room temperature. The drainage and waxing was done using a Leica ASP200, the samples were embedded in paraffin, sectioned by microtome and mounted on slides. The paraffin sections were stained depending on the question (Ladewig or Sirius Red)
To assess the content of collagen type I (mature form) and collagen type III (newly formed) in ulcer tissue, Sirius red staining was performed according to standard protocols.

myeloperoxidase (MPO) = assay: Myeloperoxidase (MPO) activity in wound tissue of diabetic mice (db/db); format: in vivo; details: db/db mouse
Protocol: MPO determination is based on the oxidation of H2O2 by a peroxidase in the presence of TMB (3,3′5,5′-Tetramethylbenzidin). The results were quantified with a human MPO standard curve prepared in homogenate buffer, which also serves as a blank. Samples were diluted fifteen fold in homogenate buffer. Of each sample, standard and blank 20 μL were dispensed in a clear flat bottom MWP at RT. Following that 100 μL of fresh 0.2 mM TMB in AC-POX buffer are added and the reaction was started by adding 12.5 μL of 1 mM H2O2 in AC-POX buffer. After 5-10 min 22.5 μL of 1 N H2SO4 was added to stop the reaction and plates were vortexed briefly to evenly distribute the newly developed yellow color. […] Absorption was measured at k=450 nm and the amount of MPO in samples was calculated from standard curve in SoftmaxPro 6.4 after subtracting the blank.
To assess neutrophil activity in wound tissue samples, myeloperoxidase activity was measured.

collagen in ulcer tissue = assay: Collagen deposition in chronic skin lesions of adriamycin-treated rats, Ladewig staining; format: in vivo, rat; details: 10 mg/kg BW o.d. p.o., normal skin = 0, no blue staining = −10
Protocol: Vehicle: • DEPO—DMSO, Ethanol, Peanut Oil 5/3/92 (V/V/V) o.d., p.o., 5 ml/kg BW
Day 0: • Animal randomization, marking, inhalation anesthesia: isoflurane, O2, N2O mixture, shaving of lower back, the animals remain on warming pads in order to avoid cooling down during the adriamycin injection, pain prevention with Temgesic s.c.
Depot set: 3 intradermal injections of 0.15 ml adriamycin (2 mg/ml) per animal in front and rear back, size measurement of the depot via caliper.
as §1
Paraffin-embedded skin samples: the skin piece is placed with the downside on a piece of cork and 4 with needles and transferred into formalin (3.7% in PBS). […]

In the case of `CC1=C(C#N)[C@@H](c2ccc(C#N)cc2S(C)(=O)=O)N(C)C(=O)N1c1cccc(C(F)(F)F)c1` [Example 5, (4 S)-4-[4-Cyano-2-(methylsulfonyl)phenyl]-3,6-dimethyl-2-oxo-1-[3-(trifluoromethyl)phenyl]-1,2,3,4-tetrahydropyrimidine-5-carbonitrile], the “Total concentration in skin” value ([1]; 0.03 mg/kg BW o.d. p.o.) is reported as 0.01 µM, the “Total concentration in plasma, geo mean” value ([1]; 0.03 mg/kg BW o.d. p.o.) is reported as 0.0029 µM and the “Total concentration in skin” value ([1]; 0.1 mg/kg BW o.d. p.o.) is reported as 0.03 µM. For the same molecule, the “Total concentration in plasma, geo mean” value ([1]; 0.1 mg/kg BW o.d. p.o.) was 0.011 µM, the “Total concentration in skin” value ([1]; 0.3 mg/kg BW o.d. p.o.) was 0.06 µM and the “Total concentration in plasma, geo mean” value ([1]; 0.3 mg/kg BW o.d. p.o.) was 0.027 µM. The “Total concentration in skin” value ([1]; 1.0 mg/kg BW o.d. p.o.) was 0.16 µM, the “Total concentration in plasma, geo mean” value ([1]; 1.0 mg/kg BW o.d. p.o.) was 0.067 µM and the “Total concentration in skin” value ([1]; 3.0 mg/kg BW o.d. p.o.) was 0.30 ± 0.06 µM. For the same molecule, the “Total concentration in plasma, geo mean” value ([1]; 3.0 mg/kg BW o.d. p.o.) was 0.13 µM, the “Total concentration in skin” value ([1]; 10.0 mg/kg BW o.d. p.o.) was 0.54 µM and the “Total concentration in plasma, geo mean” value ([1]; 10.0 mg/kg BW o.d. p.o.) was 0.17 µM. The Visual wound size ([2]; 0.03 mg/kg BW o.d. p.o.) was 98.5 % initial area at day 8, the Visual wound size ([2]; 0.1 mg/kg BW o.d. p.o.) was 86.07 % initial area at day 8 and the Visual wound size ([2]; 0.3 mg/kg BW o.d. p.o.) was 72 % initial area at day 8. The Visual wound size ([2]; 1.0 mg/kg BW o.d. p.o.) was 71.16 % initial area at day 8, the Visual wound size ([2]; 3.0 mg/kg BW o.d. p.o.) was 68.1 % initial area at day 8 and the Visual wound size ([2]; 10.0 mg/kg BW o.d. p.o.) was 54.85 % initial area at day 8. The EC50 ([2]; in vivo, read-out: Potency (EC50) to improve wound size reduction) was 4.5 nM, the “Collagen type I” value ([3]; d 14-28, Sirius red) was 9.7 and the “Collagen type III” value ([3]; d 14-28, Sirius red) was 46.69. The “Collagen type I” value ([3]; d 21-37, Sirius red) was 8.8, the “Collagen type III” value ([3]; d 21-37, Sirius red) was 72.23 and the “Collagen type III in Adriamycin-induced lesions (in words)” value ([3]; rats, after two weeks of treatment) was “strong increase of collagen type III”. The “Neutrophil dependent inflammatory activity in wound tissue (MPO activity)” value (myeloperoxidase (MPO); 0.03 mg/kg BW o.d.) was 0.00361 Peroxidase Activity/μg Protein, the “Neutrophil dependent inflammatory activity in wound tissue (MPO activity)” value (myeloperoxidase (MPO); 0.1 mg/kg BW o.d.) was 0.00029 Peroxidase Activity/μg Protein and the “Neutrophil dependent inflammatory activity in wound tissue (MPO activity)” value (myeloperoxidase (MPO); 0.3 mg/kg BW o.d.) was 0.00043 Peroxidase Activity/μg Protein. For the same molecule, the “Neutrophil dependent inflammatory activity in wound tissue (MPO activity)” value (myeloperoxidase (MPO); 1.0 mg/kg BW o.d.) was 0.00043 Peroxidase Activity/μg Protein, the “Neutrophil dependent inflammatory activity in wound tissue (MPO activity)” value (myeloperoxidase (MPO); 3.0 mg/kg BW o.d.) was 0.00027 Peroxidase Activity/μg Protein and the “Neutrophil dependent inflammatory activity in wound tissue (MPO activity)” value (myeloperoxidase (MPO); 10.0 mg/kg BW o.d.) was 0.00016 Peroxidase Activity/μg Protein. For the same molecule, the “Inhibition of MPO activity in wound tissue (in words)” value (myeloperoxidase (MPO); from 0.1 mg/kg) was “potently and effectively inhibited MPO activity in wound tissue” and the Ladewig score (collagen in ulcer tissue) was −1.38 (n = 8).
